This is an account of results in ChEMBL document CHEMBL1143499, “Fused pyrimidine based inhibitors of phosphodiesterase 7 (PDE7): synthesis and initial structure-activity relationships” (Bioorg Med Chem Lett, 2005).

Each structure is given as a SMILES string.

Assay [1] is described as follows: Inhibition of Phosphodiesterase 1.
The nature of assay [2]: Inhibition of Phosphodiesterase 4.
A short description of assay [3]: Inhibition of Phosphodiesterase 5.
The nature of assay [4]: Inhibition of Phosphodiesterase 7.
The nature of assay [5]: Relative binding to Phosphodiesterase 1 and Phosphodiesterase 7, ratio of IC50.
A short description of assay [6]: Relative binding to Phosphodiesterase 3 and Phosphodiesterase 7, ratio of IC50.
A short description of assay [7]: Relative binding to Phosphodiesterase 4 and Phosphodiesterase 7, ratio of IC50.
The nature of assay [8]: Relative binding to Phosphodiesterase 5 and Phosphodiesterase 7, ratio of IC50.
A short description of assay [9]: Relative binding to Phosphodiesterase 2 and Phosphodiesterase 7, ratio of IC50.
The target of assay [10] is cGMP-dependent 3',5'-cyclic phosphodiesterase (Homo sapiens, UniProt O00408). Kind of assay: Inhibition of Phosphodiesterase 2.
Assay [11] deals with Phosphodiesterase 3 (Homo sapiens, UniProt Q14432+Q13370). Kind of assay: Inhibition of Phosphodiesterase 3. In kind it is protein assay.

cGMP-dependent 3',5'-cyclic phosphodiesterase, sequence (O00408 whole entry): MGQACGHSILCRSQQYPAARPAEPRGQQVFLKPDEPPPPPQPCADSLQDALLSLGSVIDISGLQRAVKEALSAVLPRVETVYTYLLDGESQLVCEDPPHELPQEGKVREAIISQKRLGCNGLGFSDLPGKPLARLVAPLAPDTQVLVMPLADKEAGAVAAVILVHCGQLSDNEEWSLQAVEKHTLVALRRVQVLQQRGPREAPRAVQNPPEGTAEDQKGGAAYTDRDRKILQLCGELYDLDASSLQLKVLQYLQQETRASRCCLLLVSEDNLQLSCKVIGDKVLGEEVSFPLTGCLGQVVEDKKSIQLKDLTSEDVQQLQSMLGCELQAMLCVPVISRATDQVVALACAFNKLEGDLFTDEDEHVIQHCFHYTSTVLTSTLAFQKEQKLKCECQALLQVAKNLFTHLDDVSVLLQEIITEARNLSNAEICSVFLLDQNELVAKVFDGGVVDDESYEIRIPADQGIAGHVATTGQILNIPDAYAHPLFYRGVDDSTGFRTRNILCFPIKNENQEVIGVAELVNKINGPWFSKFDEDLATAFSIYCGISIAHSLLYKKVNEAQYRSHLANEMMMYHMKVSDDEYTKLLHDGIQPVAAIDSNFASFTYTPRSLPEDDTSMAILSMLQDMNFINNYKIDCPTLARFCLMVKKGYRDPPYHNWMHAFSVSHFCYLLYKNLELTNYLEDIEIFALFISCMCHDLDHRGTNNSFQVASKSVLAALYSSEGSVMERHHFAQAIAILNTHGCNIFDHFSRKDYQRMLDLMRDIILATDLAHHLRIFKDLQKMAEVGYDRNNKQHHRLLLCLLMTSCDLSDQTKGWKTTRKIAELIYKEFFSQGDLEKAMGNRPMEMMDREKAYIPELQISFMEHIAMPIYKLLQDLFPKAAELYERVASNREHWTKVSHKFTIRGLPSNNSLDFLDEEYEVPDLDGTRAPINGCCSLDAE

Consider `CCCc1nn(C)c2c(=O)[nH]c(-c3cc(S(=O)(=O)N4CCN(C)CC4)ccc3OCC)nc12`, for which the IC50 in assay [1] was more than 10000 nM; in assay [2] it was 4600 nM; in [3] it was 11 nM; in assay [4], more than 10000 nM.
`CCOC(=O)c1sc(Nc2nc(N3CCN(C)CC3)c3c(n2)N(Cc2cc(OC)c(OC)c(OC)c2)CC3)nc1C`: the Ratio in [5] was 156; in assay [6], 315; in assay [7], 189; in assay [8], 104. In [4], this compound registered an IC50 of 20 nM.
For `CCOC(=O)c1sc(Nc2nc(N3CCN(C)CC3)c3c(n2)N(Cc2cc(OC)c(OC)c(OC)c2)CCC3)nc1C`, in that order: 39, 174, 27, 9 and 150 nM.
On the same counts, the results for `CCOC(=O)c1sc(Nc2nc(N3CCNCC3)c3c(n2)N(Cc2ccc(S(C)(=O)=O)cc2)CC3)nc1C` are 352, 1030, 94, 1 and 20 nM.
Regarding `CCOC(=O)c1sc(Nc2nc(N3CCNCC3)c3c(n2)N(Cc2cc(OC)c(OC)c(OC)c2)CC3)nc1C`, the Ratio in [5] is 576; in [6], 1880; in assay [7], 795; in [8], 362. This compound displayed an IC50 in assay [4] of 6 nM.
As for `CCOC(=O)c1sc(Nc2nc(NCc3ccc(OC)c(OC)c3)c3c(ncn3CC)n2)nc1C`, the Ratio in assay [5] was 1.5; in assay [9], 11; in [6] it was 3.8; in assay [7], 7.3; in assay [8], 1.8. Moreover, the IC50 in [1] is 220 nM; in assay [10] it was 1700 nM; in assay [3], 270 nM; in [4], 150 nM; in [11] it was 580 nM.
As for `CCOC(=O)c1sc(Nc2nc(NC)c3c(n2)N(Cc2ccc(S(C)(=O)=O)cc2)CC3)nc1C`, in assay [7], the Ratio was found to be 6. The midpoint of inhibition in assay [4], the IC50, lay at 340 nM.
As to `CCOC(=O)c1sc(Nc2nc(NC)c3ncn(Cc4ccc(S(C)(=O)=O)cc4)c3n2)nc1C`, the Ratio amounted to 556 in assay [5], 259 in assay [6], 3 in [7] and 8 in assay [8]. Also, the IC50 was found to be 50000 nM in [1]; 270 nM in assay [2]; 720 nM in [3]; 90 nM in [4]; 23300 nM in assay [11].
Regarding `CCOC(=O)c1sc(Nc2nc(N3CCNCC3)c3c(n2)N(Cc2cc(OC)c(OC)c(OC)c2)CCO3)nc1C`, the Ratio in assay [5] was found to be 1170; in assay [6], 3850; in [7], 1200; in assay [8] it was 1240. In assay [4], half-maximal inhibition (IC50) was put at 5 nM.
For `CCOC(=O)c1sc(Nc2nc(N3CCNCC3)c3c(n2)N(Cc2cc(OC)c(OC)c(OC)c2)CCC3)nc1C`, the Ratio in assay [5] was 166; in assay [9] it was 114; in [6], 734; in [7], 105; in assay [8], 182. In assay [4], this compound returned an IC50 of 30 nM.
Consider `CCOC(=O)c1sc(Nc2nc(NCc3ccc(S(N)(=O)=O)cc3)c3c(ncn3CC)n2)nc1C`, for which the IC50 came out at 950 nM in assay [1]; 950 nM in assay [10]; 550 nM in assay [2]; 11 nM in [3]; 11 nM in [4]; 2970 nM in assay [11].
For the compound `CCOC(=O)c1sc(Nc2nc(N3CCN(O)CC3)c3c(n2)N(Cc2ccccn2)CC3)nc1C`, the Ratio came out at 35 in assay [5], 154 in assay [6], 13 in assay [7] and 7 in [8]. The compound further gave an IC50 in [4] of 150 nM.
Regarding `COc1ccc(C2CNC(=O)C2)cc1OC1CCCC1` (stereo not given) [ROLIPRAM], the half-inhibitory concentration (IC50) in assay [1] was more than 10000 nM; in assay [10], more than 10000 nM; in assay [2], 740 nM; in [3] it was more than 10000 nM; in [4], more than 10000 nM; in assay [11], more than 10000 nM.
As to `CCOC(=O)c1sc(Nc2nc(N3CCN(C)CC3)c3c(n2)N(Cc2cc(OC)c(OC)c(OC)c2)CCO3)nc1C`, the Ratio in assay [5] was 64; in assay [6], 206; in assay [7], 67; in [8], 64. In addition, the concentration for half-maximal inhibition (IC50) in [4] was found to be 70 nM.
In the case of `CCOC(=O)c1sc(Nc2nc(N3CCNCC3)c3c(n2)N(Cc2cccnc2)CCC3)nc1C`, the Ratio in [5] came out at 162; in assay [9] it was 33; in assay [6] it was 390; in assay [7], 35; in assay [8], 13. For the same compound, the IC50 in assay [4] came out at 100 nM.
As for `CCOC(=O)c1sc(Nc2nc(N3CCNCC3)c3c(n2)N(Cc2ccc(S(C)(=O)=O)cc2)CCC3)nc1C`, the Ratio in assay [5] was determined as 157; in [9], 27; in assay [6] it was 392; in assay [7], 54; in assay [8], 8. 60 nM corresponded to half-maximal inhibition in assay [4] (IC50).
